Patent publication US20040137455A1, “Diagnosis of cancer or benign tumor using the aberrant expression product of the klk4 gene” (priority 2001, published 2004)

Experiments:
[1] = system: K4 protein in the KLE cell line; test: Western analysis of K4 protein levels in KLE cells after steroid treatment; assay type: cell-based, human; conditions: KLE endometrial cancer cell line, 10 nmol/L steroid, 48 h, 200 μg intracellular protein
Protocol: The endometrial cancer cell lines, Ishikawa (well differentiated), HEC1A, HEC1B, RL95-2 (moderately differentiated) and KLE (poorly differentiated) and the prostate cancer cell line LNCaP, used for a control, were obtained from the American Type Culture Collection, Rockville, Md. Prostate and kidney control tissue was obtained from Royal Brisbane Hospital and Princess Alexandra Hospital respectively. All cell lines were cultured in DMEM (Life Technologies, Rockville, Md.) with 10% FCS, 50 U/mL Penicillin G and 50 μg/mL Streptomycin (CSL Biosciences, Melbourne, Australia) at 37 C and 5% CO2. The regulation studies were performed in triplicate in the KLE cell line using phenol red and FCS-free media. After 24 h, fresh media was supplemented with 10 nmol/L 17β-estradiol or progesterone, (Sigma Chemical Company, St Louis, Mo.) and the cells were maintained for 48 h with these steroids. In addition, […] progesterone was added to one group of oestrogen-treated cells after 24 h. […] Detection was determined using X-ray film and visualisation of the chemiluminescence signal. Fold changes in the level of signal were assessed using the Hewlett Packard Scan Jet IICX and ImagQuant™ 4.21A software (Molecular Dynamics, Amersham)

[2] = system: hK4 intracellular levels in OVCAR-3; test: Western blot and densitometry of hK4 intracellular levels in OVCAR-3 cells (oestrogen regulation); assay type: cell-based, human
Description: Normal ovary and ovarian tumour samples were obtained at surgery from women who underwent laparotomy for benign and malignant conditions in the Department of Obstetrics and Gynaecology at the Royal Women's Hospitals and Monash Medical Centre. Ethics approval was obtained from the respective institutional Ethics Committees and informed consent was obtained from all patients. Epithelial cells from normal, benign and malignant ovaries were isolated from some of these tissue samples and the primary cultured cells were grown in M199 (Sigma, St. Louis, Mo., USA) and MCDB 105 (Sigma) media supplemented with 10% FCS and 10 ng/mL human epidermal growth factor (Boehringer Mannheim, Germany) (17). The ovarian cancer cell lines, that were used in this study, were derived from late stage serous carcinomas with well (PEO14 and OAW42), moderate (SKOV-3 and OVCAR-3) or poor (JAM, CI-80-13S, PEO1 and PEO4) differentiation. SKOV-3 and OVCAR-3 were from American Type Culture Collection, and the remainder have been described previously (18, 19). These cell lines were grown in RPMI (Life Technologies, Inc., Gaithersburg. MD, USA) supplemented with 10% FCS. For the oestrogen regulation study, OVCAR-3 cells were grown to 50% confluency. […]

SMILES	levels of K4 protein elevated compared to the control [1]	effect on intracellular hK4 levels (densitometry of Western blot) ([2]; OVCAR-3, 100 nM, over 30 hrs)	up-regulation of hK4 intracellular levels ([2]; OVCAR-3 ovarian carcinoma cell line, 100 nM, 8-30 hr, time dependent)
C[C@]12CC[C@@H]3c4ccc(O)cc4CC[C@H]3[C@@H]1CC[C@@H]2O [estradiol, 17β-estradiol]	16 fold	up-regulation	1.5-4 fold
CC(=O)[C@H]1CC[C@H]2[C@@H]3CCC4=CC(=O)CC[C@]4(C)[C@H]3CC[C@]12C [progesterone]	27 fold	–	–
